Measured values from PubChem BioAssay AID248 (DTP/NCI, 2004).
Several values for one entry are separate records, joined by “and”; a condition that tells them apart may be missing. Equal values may be shown once. Inconclusive results and toxic doses are left out.

System: L1210 leukemia ip in BDF1 mice, survival T/C
Experiment: NCI In Vivo Anticancer Drug Screen. Data for tumor model L1210 Leukemia (intraperitoneal) in B6D2F1 (BDF1) mice
Conditions: endpoint: mean survival time, higher = longer survival
How it was run: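 Ratio derived from survival: compound-dosed mice over vehicle-dosed mice, all bearing a transplantable tumor.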

[1] = dose: 100.0 mg/kg/injection, schedule: Q04DX002 (ip), vehicle: Klucel (hydroxypropylcellulose) (HPC)
[2] = dose: 100.0 mg/kg/injection, schedule: Q01DX001 (ip), vehicle: saline
[3] = dose: 200.0 mg/kg/injection, schedule: Q01DX001 (ip), vehicle: saline
[4] = dose: 400.0 mg/kg/injection, schedule: Q01DX001 (ip), vehicle: saline
[5] = dose: 75.0 mg/kg/injection, schedule: Q01DX001 (ip), vehicle: saline
[6] = dose: 100.0 mg/kg/injection, schedule: Q04DX003 (ip), vehicle: Klucel (hydroxypropylcellulose) (HPC)
[7] = dose: 200.0 mg/kg/injection, schedule: Q04DX003 (ip), vehicle: Klucel (hydroxypropylcellulose) (HPC)
[8] = dose: 400.0 mg/kg/injection, schedule: Q04DX003 (ip), vehicle: Klucel (hydroxypropylcellulose) (HPC)
[9] = dose: 100.0 mg/kg/injection, schedule: Q01DX001 (ip), vehicle: carboxymethylcellulose (CMC)
[10] = dose: 200.0 mg/kg/injection, schedule: Q01DX001 (ip), vehicle: carboxymethylcellulose (CMC)
[11] = dose: 400.0 mg/kg/injection, schedule: Q01DX001 (ip), vehicle: carboxymethylcellulose (CMC)
[12] = dose: 100.0 mg/kg/injection, schedule: Q04DX003 (ip), vehicle: saline with Tween-80
[13] = dose: 200.0 mg/kg/injection, schedule: Q04DX003 (ip), vehicle: saline with Tween-80
[14] = dose: 400.0 mg/kg/injection, schedule: Q04DX003 (ip), vehicle: saline with Tween-80
[15] = dose: 100.0 mg/kg/injection, schedule: Q01DX009 (ip), vehicle: Klucel (hydroxypropylcellulose) (HPC)
[16] = dose: 200.0 mg/kg/injection, schedule: Q01DX009 (ip), vehicle: Klucel (hydroxypropylcellulose) (HPC)
[17] = dose: 400.0 mg/kg/injection, schedule: Q01DX009 (ip), vehicle: Klucel (hydroxypropylcellulose) (HPC)

CNC(Cc1ccccc1)C1CCCCC1 (centres undefined)
T/C (dose: 6.0 mg/kg/injection, schedule: Q04DX003 (ip), vehicle: Klucel (hydroxypropylcellulose) (HPC)): 93 % of control | T/C (dose: 12.0 mg/kg/injection, schedule: Q01DX009 (ip), vehicle: Klucel (hydroxypropylcellulose) (HPC)): 98 % of control | T/C (dose: 12.0 mg/kg/injection, schedule: Q04DX003 (ip), vehicle: Klucel (hydroxypropylcellulose) (HPC)): 98 % of control | T/C (dose: 25.0 mg/kg/injection, schedule: Q01DX009 (ip), vehicle: Klucel (hydroxypropylcellulose) (HPC)): 98 % of control | T/C (dose: 25.0 mg/kg/injection, schedule: Q04DX003 (ip), vehicle: Klucel (hydroxypropylcellulose) (HPC)): 95 % of control and 109 % of control | T/C (dose: 50.0 mg/kg/injection, schedule: Q01DX009 (ip), vehicle: Klucel (hydroxypropylcellulose) (HPC)): 95 % of control

CC(=O)C1(c2ccccc2)C(C)(C)C(C)(C)C(=O)C(C)(C)C1(C)C
T/C (dose: 100.0 mg/kg/injection, schedule: Q04DX002 (ip), vehicle: gum acacia): 99 % of control | T/C (dose: 200.0 mg/kg/injection, schedule: Q04DX002 (ip), vehicle: gum acacia): 96 % of control | T/C (dose: 400.0 mg/kg/injection, schedule: Q04DX002 (ip), vehicle: gum acacia): 92 % of control

O=C(COc1ccc(Cl)cc1)Nc1cccc2ccccc12
T/C [1]: 87 % of control | T/C (dose: 200.0 mg/kg/injection, schedule: Q04DX002 (ip), vehicle: Klucel (hydroxypropylcellulose) (HPC)): 93 % of control | T/C (dose: 400.0 mg/kg/injection, schedule: Q04DX002 (ip), vehicle: Klucel (hydroxypropylcellulose) (HPC)): 101 % of control

CC(C)N=C(N)c1ccc(NC(=O)c2ccc(C(=O)Nc3ccc(C(N)=NC(C)C)cc3)cc2)cc1
T/C (dose: 0.12 mg/kg/injection, schedule: Q01DX Z (ip), vehicle: water): 101 % of control | T/C (dose: 0.25 mg/kg/injection, schedule: Q01DX Z (ip), vehicle: water): 108 % of control | T/C (dose: 0.5 mg/kg/injection, schedule: Q01DX Z (ip), vehicle: water): 113 % of control | T/C (dose: 1.0 mg/kg/injection, schedule: Q01DX Z (ip), vehicle: water): 162 % of control | T/C (dose: 1.25 mg/kg/injection, schedule: Q01DX Z (ip), vehicle: other): 237 % of control | T/C (dose: 2.5 mg/kg/injection, schedule: Q01DX Z (ip), vehicle: other): 172 % of control | T/C (dose: 5.0 mg/kg/injection, schedule: Q01DX Z (ip), vehicle: other): 118 % of control | T/C (dose: 62.0 mg/kg/injection, schedule: Q01DX Z (oral), vehicle: alkali diluted with CMC): 104 % of control | T/C (dose: 125.0 mg/kg/injection, schedule: Q01DX Z (oral), vehicle: alkali diluted with CMC): 93 % of control | T/C (dose: 250.0 mg/kg/injection, schedule: Q01DX Z (oral), vehicle: alkali diluted with CMC): 96 % of control | T/C (dose: 500.0 mg/kg/injection, schedule: Q01DX Z (oral), vehicle: alkali diluted with CMC): 90 % of control

CC12CCCC([N+](=O)[O-])(C1)NC(=O)C2C#N (centres undefined)
T/C [2]: 105 % of control | T/C [3]: 106 % of control | T/C [4]: 101 % of control

CNC(COC(=O)c1ccc(N)cc1)C1CCCCC1 (centres undefined)
T/C [5]: 97 % of control

CCCCN(CCCC)/C(=C/C(=O)OC)C(=O)OC
T/C [6]: 94 % of control | T/C [7]: 100 % of control | T/C [8]: 94 % of control

C=CCSCC(=O)Cl
T/C (dose: 25.0 mg/kg/injection, schedule: Q01DX009 (ip), vehicle: saline): 102 % of control | T/C (dose: 50.0 mg/kg/injection, schedule: Q01DX009 (ip), vehicle: saline): 100 % of control | T/C (dose: 100.0 mg/kg/injection, schedule: Q01DX009 (ip), vehicle: saline): 110 % of control | T/C (dose: 100.0 mg/kg/injection, schedule: Q04DX002 (ip), vehicle: saline): 95 % of control

CC(Cl)CN1c2ccccc2Sc2ccc(Cl)cc21 (centres undefined)
T/C [9]: 97 % of control | T/C [10]: 95 % of control | T/C [11]: 92 % of control

COc1cc2c(cc1OC)C(=O)CN(S(=O)(=O)c1ccc(C)cc1)CC2
T/C (dose: 50.0 mg/kg/injection, schedule: Q01DX009 (ip), vehicle: saline sonified): 101 % of control | T/C (dose: 100.0 mg/kg/injection, schedule: Q01DX009 (ip), vehicle: saline sonified): 87 % of control | T/C [6]: 96 % of control | T/C (dose: 200.0 mg/kg/injection, schedule: Q01DX009 (ip), vehicle: saline sonified): 89 % of control | T/C [7]: 96 % of control | T/C [8]: 97 % of control

O=C(O)c1ccccc1C(=O)c1ccccc1C(=O)O
T/C [12]: 102 % of control | T/C [13]: 98 % of control | T/C [14]: 102 % of control

C=CC(=O)NC(C)C(=O)O (centres undefined)
T/C [2]: 95 % of control | T/C [3]: 102 % of control | T/C [4]: 98 % of control

CCOC(=O)N/N=C/c1cccc([N+](=O)[O-])c1
T/C [5]: 104 % of control | T/C (dose: 150.0 mg/kg/injection, schedule: Q01DX001 (ip), vehicle: saline): 100 % of control | T/C (dose: 300.0 mg/kg/injection, schedule: Q01DX001 (ip), vehicle: saline): 101 % of control

COc1cc2ccc3c(c2cc1OC)CCc1cnoc1-3
T/C [12]: 95 % of control | T/C [13]: 98 % of control | T/C [14]: 98 % of control

Cc1[nH]c(N)nc(=S)c1CCC(=O)O
T/C [15]: 96 % of control | T/C [6]: 98 % of control | T/C [16]: 96 % of control | T/C [7]: 93 % of control | T/C [17]: 98 % of control | T/C [8]: 90 % of control

Cc1cccc(C)c1NC(=O)NCc1ccco1
T/C (dose: 25.0 mg/kg/injection, schedule: Q04DX002 (ip), vehicle: Klucel (hydroxypropylcellulose) (HPC)): 99 % of control | T/C (dose: 50.0 mg/kg/injection, schedule: Q04DX002 (ip), vehicle: Klucel (hydroxypropylcellulose) (HPC)): 118 % of control | T/C [15]: 103 % of control | T/C [1]: 100 % of control and 103 % of control | T/C [6]: 103 % of control | T/C [16]: 107 % of control | T/C [7]: 100 % of control | T/C [17]: 102 % of control | T/C [8]: 93 % of control

COC(=O)/C(=C\c1cccnc1)NC(=O)c1ccccc1
T/C (dose: 50.0 mg/kg/injection, schedule: Q01DX001 (ip), vehicle: saline): 100 % of control | T/C [2]: 100 % of control | T/C (dose: 100.0 mg/kg/injection, schedule: Q04DX003 (ip), vehicle: saline): 97 % of control | T/C [3]: 103 % of control | T/C (dose: 200.0 mg/kg/injection, schedule: Q04DX003 (ip), vehicle: saline): 95 % of control | T/C (dose: 400.0 mg/kg/injection, schedule: Q04DX003 (ip), vehicle: saline): 97 % of control

COc1ccccc1N=Nc1cc(C)c(C)cc1O
T/C (dose: 50.0 mg/kg/injection, schedule: Q01DX009 (ip), vehicle: saline with Tween-80): 106 % of control | T/C (dose: 100.0 mg/kg/injection, schedule: Q01DX009 (ip), vehicle: saline with Tween-80): 103 % of control | T/C (dose: 200.0 mg/kg/injection, schedule: Q01DX009 (ip), vehicle: saline with Tween-80): 95 % of control

COc1cc(CCC(=O)O)cc(OC)c1OC
T/C (dose: 100.0 mg/kg/injection, schedule: Q04DX002 (ip), vehicle: saline with Tween-80): 116 % of control | T/C (dose: 200.0 mg/kg/injection, schedule: Q04DX002 (ip), vehicle: saline with Tween-80): 89 % of control | T/C (dose: 400.0 mg/kg/injection, schedule: Q04DX002 (ip), vehicle: saline with Tween-80): 106 % of control

CCCCCCCCCCCCCCC(CCCCCCCCCCCCCC)C1CCCCC1
T/C (dose: 100.0 mg/kg/injection, schedule: Q01DX001 (ip), vehicle: saline with Tween-80): 92 % of control | T/C (dose: 200.0 mg/kg/injection, schedule: Q01DX001 (ip), vehicle: saline with Tween-80): 95 % of control | T/C (dose: 400.0 mg/kg/injection, schedule: Q01DX001 (ip), vehicle: saline with Tween-80): 94 % of control

S=c1sc2ccccc2n1CCNc1ccccc1
T/C (dose: 50.0 mg/kg/injection, schedule: Q01DX001 (ip), vehicle: carboxymethylcellulose (CMC)): 96 % of control | T/C [9]: 100 % of control | T/C [10]: 100 % of control | T/C [11]: 89 % of control
